Experiment: Human HepG2 cell viability assay in 384 well format
Type: toxicity, cell-based
Parameters: dose 125 nL, time 70.5 hour; cytotoxicity at 70.5 h: concentration not given beside the values
Conditions: HepG2 cells, read-out: Inhibition

Structure (SMILES)	cytotoxicity at 70.5 h [%]
OCC1N(Cc2ccc(F)cc2)[C@H]2CC[C@]1(O)CC2 (stereo partly drawn)	-7.04
Cc1cccc(N2CCC3(CCN(C(=O)c4cccnc4)CC3)C2)n1	14
Cc1ncc2c(n1)CN(c1ncnc3[nH]ccc13)CC2	1.91
COc1ccc(CNC(=O)c2ccoc2CN2CCNC(=O)C2)cc1	22.4
Cc1ccc(C)c(S(=O)(=O)CCN2CCCC2Cn2cccn2)c1 (stereo not drawn)	-7.12
COc1ccccc1Cc1nnc(SCCS(C)(=O)=O)o1	-7.42
CCc1ccccc1CN1CCn2nc(CNC(C)=O)cc2C1	59.7
Cc1nonc1C1CCCN1C(=O)c1cc2n(n1)CCCNC2 (stereo not drawn)	4.03
CNc1ccc(CC2CCCN(C(=O)c3cccc(C)n3)C2)nn1 (stereo not drawn)	-0.376
O=C(NC1CCS(=O)(=O)C1)c1cc(Sc2ncccn2)ccn1 (stereo not drawn)	-13.4
Fc1cc(Cl)cnc1N1CCCC(c2nccn2Cc2ccccn2)C1 (stereo not drawn)	10.1
Cc1nc(C)n(CC2CN(S(C)(=O)=O)Cc3nccn3C2)n1 (stereo not drawn)	9.77
COc1ccc(CN2CC[C@@]3(O)CCCC[C@H]3C2)cc1C(=O)O	8.88
Cc1ccc(CN2CCc3ncnc(-c4ccncc4)c3CC2)o1	-7.23
CCN(Cc1ccncc1)c1nc(C)nc2oc(C)nc12	-5.52
Cc1ccsc1C(=O)NCc1cccnc1N(C)CCc1ccccn1	-7.98
CC(C)n1cnc2c1C(C(=O)N1CCCC1)N(S(C)(=O)=O)CC2 (stereo not drawn)	-0.195
CCN1CCC(CNS(=O)(=O)N2CCc3ccccc3C2)C1 (stereo not drawn)	6.73
Cc1cccc(NC(=O)c2cccc(OCc3nnnn3C)c2)n1	18.7
CN(C)CC1(O)CCN(C(=O)Cc2ccc(Cl)c(Cl)c2)C1 (stereo not drawn)	10.5
CC(Nc1nc2c(cnn2C)c(=O)[nH]1)c1ccccn1 (stereo not drawn)	13
CCc1cc2c(N3CCCC(c4cc(C(N)=O)[nH]n4)C3)ncnc2s1 (stereo not drawn)	-4.85
CC(C)(CNC(=O)c1ccco1)NC(=O)OC(C)(C)C	-12.7

Structure (SMILES)	cytotoxicity at 70.5 h [%]
O=C(NCCCN1CCCC1=O)c1nc(-c2ccc3cc[nH]c3c2)no1	-22.5
Cn1ccnc1COc1ccc(CSc2nnnn2C)cc1	-11.4
O=C(O)[C@@H]1CN(Cc2cnc(C3CCCCC3)nc2)C[C@H]1C1CC1	10.9
C[C@@H]1CN(Cc2cccnc2)C[C@]1(C)O	-15.2
Cc1ccc(S(=O)(=O)NC[C@H]2OC[C@@H](NCc3cccs3)[C@@H]2O)cc1	7.42
CCCn1cnnc1CNC(=O)CC1C(=O)NCCN1CC=C(C)C (stereo not drawn)	-0.65
c1cnc(NC[C@@H]2CCC[C@@H]3CN(Cc4cc[nH]n4)C[C@@H]32)nc1	-5.11
Cc1noc(C)c1C(=O)NCC(c1ccsc1)N(C)C (stereo not drawn)	-8.5
O=C(NCC1CCN(c2ccncc2)CC1)C(O)c1ccccc1 (stereo not drawn)	7.47
Cc1ccc(CS(=O)(=O)N2CC[C@H]3[C@H]2CC(=O)N3C)cc1	-10.2
CC1(C)OCC2(CO1)CN(S(=O)(=O)c1ccc(Cl)s1)C2	-1.76
COCCC(=O)N1CCC2(CC1)CC(c1ccccc1)CN(C1CC1)C2 (stereo not drawn)	0.742
CCn1nc2c(cc1=O)CN(Cc1nc(N)c3ccccc3n1)CC2	-2.07
CCn1nc2c(cc1=O)CN(c1ncnc3sccc13)CC2	-11.4
COCCCNS(=O)(=O)c1cc(C)sc1C	-6.05
CCC(=O)Nc1nnc(CCOc2ccc(OC)cc2)s1	3.07
CN(C)C(=O)NCc1cc2n(n1)CCN(C[C@H]1[C@@H]3CNC[C@@H]31)C2	15.7
O=C(O)c1cc(S(=O)(=O)Nc2cnn(C3CCOCC3)c2)ccc1F	-6.44
CN(C)C(=O)CN1CC[C@H]2CN(C3CCOCC3)C[C@@H]2C1=O	-4.31
COc1cc(N2C[C@@H]3COC[C@]3(COc3cccnc3)C2)ncn1	-5
CNc1ncc2c(n1)CN(c1cccc(OC)c1)C2=O	-13.9
O=c1[nH]c2csnc2c(=O)n1Cc1ccc(Br)cc1	-10.2
CCOc1cc(CNC(C)c2sccc2C)ccn1 (stereo not drawn)	-0.185

Structure (SMILES)	cytotoxicity at 70.5 h [%]
CC(C)c1nn(C)c(N2CCOCC2)c1CNCC(=O)N(C)C	-6.07
Cc1cc(CN(C)CCN(C)c2ccccc2)no1	0.0635
CC(=O)NC1CCCN(c2ccc(C#N)cc2C(F)(F)F)C1 (stereo not drawn)	-0.014
COCCNC(=O)c1cc(C(C)C)nc(N2CCCC2)n1	-9.32
Fc1cccc(CN2CCN(Cc3cscn3)CC2)c1	-4.73
CC(C)(C)CC(=O)N1CCC(c2nn(CCN)c3nccnc23)C1 (stereo not drawn)	-4.08
CC(NC(=O)c1ccc(Cl)cc1)c1nnc(SCC(=O)O)n1C (stereo not drawn)	18.7
O=C(C1CCCC1)N1CCN(Cc2ccncc2)[C@@H]2CS(=O)(=O)C[C@@H]21	-5.83
Cc1ccc(-c2ncc(C(=O)NCCNc3ncccn3)s2)c(C)c1	3.03
Cc1noc(C2CCN(C(C)c3nc(C(C)(C)C)no3)CC2)n1 (stereo not drawn)	-14.9
O=C(COCC(F)(F)C(F)F)N1CCC2(CCCN(CC3CC3)C2=O)C1 (stereo not drawn)	-8.88
CC(=O)N1CCc2c(nc(N(C)C)nc2N(C)CC2CCCO2)C1 (stereo not drawn)	-6.61
Cc1n[nH]c(C2CN(CCCOc3ccc(F)cc3)CCO2)n1 (stereo not drawn)	-12.3
CN(C)c1nccnc1C1CCN(C2CCCCC2O)CC1 (stereo not drawn)	-8.92
Cn1cc(CN2C[C@@H]3[C@@H](C2)OCC(=O)N3Cc2ccncc2)cn1	-6.23
COc1ccc(C(CNS(=O)(=O)c2cn(C)nc2C)N2CCCC2)cc1 (stereo not drawn)	26.7
O=C(NC1CC1)N1CCc2ccc(=O)n(CC3CC3)c2CC1	-1.74
COCCCNC(=O)c1cc(-c2cnc(N(C)C)nc2)cn1CC1CC1	-6.95
COc1ccc(CNC(=O)CCc2c(C)noc2C)cc1F	-12.8
CCS(=O)(=O)N1CCCC2(COCCN(c3cnccn3)C2)C1 (stereo not drawn)	-2.48
CN(C)C(Cn1ccnc1-c1nccn1C)c1ccccc1Cl (stereo not drawn)	-5.92
O=C(c1cccnc1)C1CCCN(c2nnc(C3CC3)o2)C1 (stereo not drawn)	-1.21
O=C(Nc1nccs1)NC1CCN(Cc2ccccn2)CC1	-12.4

Structure (SMILES)	cytotoxicity at 70.5 h [%]
COCCN(c1ccncc1)S(=O)(=O)c1cc(C)c(F)cc1F	15.9
COCCC(=O)N1CCCC1c1nc(C)c2c(n1)N(C)C(=O)CC2 (stereo not drawn)	-3.97
CCn1ccnc1CN1CCN(CC(O)Cn2cccn2)CC1 (stereo not drawn)	-10.4
O=C(Nc1cc(-c2ccccc2)on1)N1CC[C@H](O)C1	-1.65
CCOCCC(=O)NC1(c2cccc(Br)c2)CC1	-3.83
NS(=O)(=O)N1CCc2ccc(NC(=O)CC(F)(F)F)cc21	-1.59
O=C(NCc1cc2n(n1)CCCNC2)c1cn2cc(Cl)ccc2n1	-2.1
CN1CCCN(c2nccc(-c3c[nH]nc3-c3ccncc3)n2)CC1	-3.42
Cc1c(CN2CCOCC2)c(O)n(CCc2ccccc2)c(=O)c1C#N	-9.75
CN(C)c1cc2c(nn1)CCN(C(=O)C1Cc3ccccc3O1)C2 (stereo not drawn)	8.33
CCOCc1cnc2n1CCN(Cc1cccs1)C2C (stereo not drawn)	-8.03
O=C(C1CCOC1)N1CCC(Cn2cc(-c3ccsc3)nn2)CC1 (stereo not drawn)	-11.1
CCN1CCC(CC(=O)NCc2cc(C)nn2C)CC1	-4.69
CN1CCN(c2ccc(F)cc2NC(=O)NCC[S+](C)[O-])CC1 (stereo not drawn)	-2.15
O=C(Nc1cc(C(F)(F)F)c[nH]c1=O)C1CCCO1 (stereo not drawn)	-7.79
COCCN1CCN(c2nc(C3CCCC3)nc3c2cnn3C)CC1	-16.1
Cc1nn(C)c(Cl)c1C1CCCN1Cc1ccccn1 (stereo not drawn)	-7.44
Cc1nn(C)c(C)c1OCC(=O)NCC(O)c1ccsc1 (stereo not drawn)	0.375
O=C(Nc1ccc(OC2CCCC2)cc1)C1CCCN1c1nccs1 (stereo not drawn)	26.8
O=C(c1ccco1)N1CCOCC2(C1)CN(c1ccccn1)C(=O)CO2 (stereo not drawn)	-4.96
COCC(=O)N1CCn2c(Cn3cncn3)cnc2C1C (stereo not drawn)	-6.96
O=C(NCc1nnc2n1CCC2)NCC1(c2cccc(F)c2)CC1	-5.65
CN1CCOC(CN(C(=O)CCc2cnn(C)c2)c2nccs2)C1 (stereo not drawn)	-5.55

Structure (SMILES)	cytotoxicity at 70.5 h [%]
c1cncc(N2CCOCC3(CCCN(Cc4cccs4)C3)C2)c1 (stereo not drawn)	0.445
Cn1nc2c(cc1=O)CN(CCN1CCCC1=O)CC2	-1.09
CC(NC(=O)N1CCC(CO)CC1)c1csc2ccccc12 (stereo not drawn)	-1.97
NC(=O)CN1CCCC1c1cncc(Oc2ccc(Cl)cc2)n1 (stereo not drawn)	-4.42
CN(C)S(=O)(=O)N1CCC2(COCc3cnc(-c4cccnc4)nc32)C1 (stereo not drawn)	-9.11
CS(=O)(=O)N1CCOC2(CCCN(c3ncc(F)cn3)C2)C1 (stereo not drawn)	-2.76
COc1ccccc1-n1nc(-c2ccco2)n(CC(N)=O)c1=O	-7.68
CC(O)CN1CCC(CNCc2ccccc2Br)CC1 (stereo not drawn)	-1.26
Cn1cnc(-c2cc(C(=O)N3CCOCC3)c3ccccn23)c1	-31.4
COC(=O)c1cccc(CNC(=O)c2cc(C(C)C)n(C)n2)c1	27.4
O=C(NC[C@H]1C[C@@H]2CN(C(=O)c3ccno3)C[C@@H]2O1)C1CCC1	-11.5
CN(Cc1cn2c(n1)CN(C1CCOC1)CC2)Cc1ccco1 (stereo not drawn)	-8.22
CCOC(=O)c1nc(COc2ccc(CC(N)=O)cc2)no1	-10.5
Cc1nsc(N2CCCN(C(=O)CCc3ccsc3)CC2)n1	-2
CCS(=O)(=O)N1CCC2(CC1)CN(c1cncnc1)C(=O)CO2	-15.9
O=C(c1cccs1)N1CCN(CC2CC2)c2ncccc2C1	-21
Cc1nc(C(=O)N2CCC(c3nccn3Cc3ccncc3)CC2)cs1	-5.72
Cc1cc(S(=O)(=O)Nc2onc(C)c2C)c(C)s1	-3.24
CCOc1cccc(CN2CCCn3nc(CNS(C)(=O)=O)cc3C2)c1	-9.54
CN(C)C(=O)CO[C@H]1CN(Cc2cccc(F)c2)[C@@H]2CCCO[C@H]12	-0.497
O=C(NC1(c2nc(C3CC3)no2)CCCCC1)c1ccncc1	5.56
